Holding throughout (format): physicochemical
A short description of data set [1]: Particle size distribution of the powder produced by high pressure cavitation (HPC) and spray drying. Conditions: dry powder after HPC followed by spray drying. The source says:
The suspension may be passed through a high pressure cavitation apparatus several times until the desired particle size and size distribution is achieved. […] The recirculation may, for example, be performed from 2-30 times (or cycles) depending upon the API. Preferred cycle ranges include from 5 to 25 and 15 to 25. […] As will be clear to those in the art, span is defined by the ratio ((Dv90−Dv10)/Dv50), with Dv being the diameter value at which a defined percentage of the particles (eg 10%, 50% or 90% in the equation) have a diameter equal to or less than the Dv value.

Data set [2] in a line: XRPD of the isolated product (polymorphic form after HPC and spray drying). The settings on record: after HPC followed by spray drying.
The nature of data set [3]: Amorphous content determined by dynamic vapour sorption (DVS). The settings on record: after HPC followed by spray drying.
Data set [4] can be described thus: Detection of the anhydrous form by near infrared spectroscopy. Conditions: after HPC followed by spray drying.
The nature of data set [5]: TGA of the isolated product. Conditions: after HPC followed by spray drying.

Molecules are shown by their SMILES.

In the case of `C[C@@H]1C[C@H]2[C@@H]3C[C@H](F)C4=CC(=O)C=C[C@]4(C)[C@@]3(F)[C@@H](O)C[C@]2(C)[C@@]1(OC(=O)c1ccco1)C(=O)SCF` [Fluticasone furoate], in data set [1], the Dv10 is given as 0.89 μm, the Dv50 is 1.95 μm, the Dv90 is given as 3.78 μm and the “span ((Dv90−Dv10)/Dv50)” value came out at 1.5. Further, in data set [2], the “XRPD of the product isolated (polymorphic form retained)” value (shortened to “XRPD of the product isolated”) is recorded as “substantially the same as the starting material”.
Taken in the same sequence, the figures for `CCC(=O)O[C@]1(C(=O)SCF)[C@H](C)C[C@H]2[C@@H]3C[C@H](F)C4=CC(=O)C=C[C@]4(C)[C@@]3(F)[C@@H](O)C[C@@]21C` [Fluticasone propionate] were 1.20 μm, 2.45 μm, 4.68 μm, 1.4 and “substantially the same as the starting material”.
Take `C[N+]1(C)[C@@H]2C[C@@H](OC(=O)C(O)(c3cccs3)c3cccs3)C[C@H]1[C@@H]1O[C@@H]12` [Tiotropium bromide]: in data set [1], the Dv10 amounted to 0.74 μm, the Dv50 came out at 2.90 μm, the Dv90 was 5.58 μm and the “span ((Dv90−Dv10)/Dv50)” value is 1.7.
For the compound `C[C@@H]1C[C@H]2[C@@H]3CCC4=CC(=O)C=C[C@]4(C)[C@@]3(Cl)[C@@H](O)C[C@]2(C)[C@@]1(OC(=O)c1ccco1)C(=O)CCl` [Mometasone furoate monohydrate], in data set [1], the Dv10 is listed as 1.91 μm, the Dv50 turned out to be 3.97 μm, the Dv90 was found to be 7.47 μm and the “span ((Dv90−Dv10)/Dv50)” value was 1.4. For the same compound, the “XRPD of the product isolated” value in data set [2] is “substantially the same as claimed in U.S. Pat. No. 6,180,781B1”. Besides, in data set [3], the amorphous content entry is reported as “below 1.1%”. For the same compound, the anhydrous form entry in data set [4] is “not detected”. The same compound showed a TGA value in data set [5] of 3.0%.
`OCc1cc(C(O)CNCCCCCCOCCCCc2ccccc2)ccc1O` (stereo not drawn) [Salmeterol xinafoate]: in data set [1], the Dv10 came out at 0.33 μm, the Dv50 stood at 1.37 μm, the Dv90 turned out to be 3.09 μm and the “span ((Dv90−Dv10)/Dv50)” value is reported as 2.0. In data set [2], the “XRPD of the product isolated” value is “substantially the same as the starting material”.

The record behind these values is patent US9956144B2, “Process for particle processing of active pharmaceutical ingredients” (HOVIONE INTER LIMITED, priority 2010, dated 2018).
